Assays:
[1] = xn = mol fraction of the nth substance listed; conditions: 101 kPa, Liquid, x2 = 0; for viscosity: Capillary tube (Ostwald / Ubbelohde) method
[2] = 101 kPa, Liquid; for viscosity: Capillary tube (Ostwald / Ubbelohde) method

O [water] + CN(C)C=O
[1]
Conditions | mass density [kg/m3] | viscosity [mPa·s]
283.15 K | 999.7 | –
293.15 K | – | 1.026
303.15 K | – | 0.817
313.15 K | – | 0.67
323.15 K | 988.03 | 0.561
328.15 K | 985.69 | –
333.15 K | 983.19 | 0.48
338.15 K | 980.55 | –
343.15 K | 977.76 | 0.419
348.15 K | 974.84 | –
353.15 K | 971.79 | 0.371

CN(C)C=O [dimethylformamide]
[2]
Conditions | mass density [kg/m3] | viscosity [mPa·s]
283.15 K | 958.96 | –
288.15 K | 954.17 | –
293.15 K | 949.39 | 0.864
298.15 K | 944.6 | –
303.15 K | 939.83 | 0.766
308.15 K | 935.05 | –
313.15 K | 930.27 | 0.684
318.15 K | 925.49 | –
323.15 K | 920.71 | 0.617
328.15 K | 915.92 | –
333.15 K | 911.13 | 0.559
338.15 K | 906.32 | –
343.15 K | 901.51 | 0.51
348.15 K | 896.69 | –
353.15 K | 891.86 | 0.47
